Assay results taken from the NIST ThermoML archive (doi:10.1021/acs.jced.6b00687).
± gives the expanded uncertainty stated by the source.

Assay: xn = mol fraction of the nth substance listed
Details: Gas, Buoyancy - hydrostatic balance with magnetic suspension - two sinkers

SMILES: [Ar] [argon] + O=C=O
- mass density (273.15 K, 510.11 kPa, x2 = 0.7509): 9.89648 ± 0.0044 kg/m3
- mass density (273.15 K, 511.42 kPa, x2 = 0.5): 9.60258 ± 0.0043 kg/m3
- mass density (273.15 K, 1005.7 kPa, x2 = 0.7509): 20.0055 ± 0.0078 kg/m3
- mass density (273.15 K, 1013.1 kPa, x2 = 0.5): 19.3275 ± 0.0073 kg/m3
- mass density (273.15 K, 2007.3 kPa, x2 = 0.7509): 42.2195 ± 0.015 kg/m3
- mass density (273.15 K, 2996.7 kPa, x2 = 0.7509): 67.1561 ± 0.026 kg/m3
- mass density (273.15 K, 3008.4 kPa, x2 = 0.5): 61.4185 ± 0.022 kg/m3
- mass density (273.15 K, 4022.5 kPa, x2 = 0.7509): 97.4841 ± 0.045 kg/m3
- mass density (273.15 K, 4488.6 kPa, x2 = 0.7509): 113.378 ± 0.053 kg/m3
- mass density (273.15 K, 5000.6 kPa, x2 = 0.7509): 133.062 ± 0.059 kg/m3
- mass density (273.15 K, 5017 kPa, x2 = 0.5): 110.665 ± 0.05 kg/m3
- mass density (273.15 K, 6031.1 kPa, x2 = 0.5): 138.861 ± 0.047 kg/m3
- mass density (273.15 K, 6410 kPa, x2 = 0.5): 150.086 ± 0.05 kg/m3
- mass density (283.15 K, 508.18 kPa, x2 = 0.7509): 9.48215 ± 0.0043 kg/m3
- mass density (283.15 K, 1002 kPa, x2 = 0.7509): 19.109 ± 0.0073 kg/m3
- mass density (283.15 K, 2002.5 kPa, x2 = 0.7509): 40.0616 ± 0.014 kg/m3
- mass density (283.15 K, 2989.1 kPa, x2 = 0.7509): 63.047 ± 0.022 kg/m3
- mass density (283.15 K, 3992.2 kPa, x2 = 0.7509): 89.5274 ± 0.036 kg/m3
- mass density (283.15 K, 4988.1 kPa, x2 = 0.7509): 120.07 ± 0.063 kg/m3
- mass density (283.15 K, 6073.3 kPa, x2 = 0.7509): 160.561 ± 0.096 kg/m3
- mass density (283.15 K, 6588 kPa, x2 = 0.7509): 183.67 ± 0.17 kg/m3
- mass density (283.15 K, 7263.8 kPa, x2 = 0.7509): 219.753 ± 0.21 kg/m3
- mass density (293.15 K, 502.06 kPa, x2 = 0.7509): 9.02478 ± 0.0042 kg/m3
- mass density (293.15 K, 1001.8 kPa, x2 = 0.7509): 18.3618 ± 0.0071 kg/m3
- mass density (293.15 K, 2024.4 kPa, x2 = 0.7509): 38.7149 ± 0.014 kg/m3
- mass density (293.15 K, 3001.1 kPa, x2 = 0.7509): 60.0081 ± 0.021 kg/m3
- mass density (293.15 K, 4009 kPa, x2 = 0.7509): 84.353 ± 0.03 kg/m3
- mass density (293.15 K, 4996.8 kPa, x2 = 0.7509): 111.184 ± 0.044 kg/m3
- mass density (293.15 K, 6024 kPa, x2 = 0.7509): 143.207 ± 0.068 kg/m3
- mass density (293.15 K, 7049 kPa, x2 = 0.7509): 180.86 ± 0.11 kg/m3
- mass density (293.15 K, 8016.8 kPa, x2 = 0.7509): 223.61 ± 0.17 kg/m3
- mass density (293.15 K, 9051.1 kPa, x2 = 0.7509): 279.404 ± 0.24 kg/m3
- mass density (298.15 K, 505.28 kPa, x2 = 0.5): 8.65443 ± 0.21 kg/m3
- mass density (298.15 K, 1014.6 kPa, x2 = 0.5): 17.5824 ± 0.4 kg/m3
- mass density (298.15 K, 2019.2 kPa, x2 = 0.5): 35.8258 ± 0.013 kg/m3
- mass density (298.15 K, 3020.7 kPa, x2 = 0.5): 54.9064 ± 0.42 kg/m3
- mass density (298.15 K, 4024.4 kPa, x2 = 0.5): 75.0005 ± 2.1 kg/m3
- mass density (298.15 K, 5017 kPa, x2 = 0.5): 95.8895 ± 5.1 kg/m3
- mass density (298.15 K, 6025.4 kPa, x2 = 0.5): 118.229 ± 0.04 kg/m3
- mass density (298.15 K, 7045.2 kPa, x2 = 0.5): 142.007 ± 7.5 kg/m3
- mass density (298.15 K, 8014 kPa, x2 = 0.5): 165.743 ± 16 kg/m3
- mass density (323.15 K, 514.24 kPa, x2 = 0.7509): 8.34326 ± 0.004 kg/m3
- mass density (323.15 K, 516.98 kPa, x2 = 0.4998): 8.14761 ± 0.0039 kg/m3
- mass density (323.15 K, 1021 kPa, x2 = 0.7509): 16.796 ± 0.0066 kg/m3
- mass density (323.15 K, 1022 kPa, x2 = 0.4998): 16.244 ± 0.0064 kg/m3
- mass density (323.15 K, 2012.2 kPa, x2 = 0.7509): 34.0421 ± 0.014 kg/m3
- mass density (323.15 K, 3034 kPa, x2 = 0.4998): 49.9179 ± 0.018 kg/m3
- mass density (323.15 K, 3036.1 kPa, x2 = 0.7509): 52.9514 ± 0.019 kg/m3
- mass density (323.15 K, 4037.8 kPa, x2 = 0.7509): 72.6588 ± 0.031 kg/m3
- mass density (323.15 K, 5040.2 kPa, x2 = 0.4998): 85.8585 ± 0.031 kg/m3
- mass density (323.15 K, 5061.8 kPa, x2 = 0.7509): 94.214 ± 0.035 kg/m3
- mass density (323.15 K, 6055.5 kPa, x2 = 0.7509): 116.646 ± 0.053 kg/m3
- mass density (323.15 K, 7040 kPa, x2 = 0.4998): 124.127 ± 0.048 kg/m3
- mass density (323.15 K, 7054.8 kPa, x2 = 0.7509): 140.911 ± 0.055 kg/m3
- mass density (323.15 K, 8053.7 kPa, x2 = 0.7509): 167.037 ± 0.095 kg/m3
- mass density (323.15 K, 9016.6 kPa, x2 = 0.4998): 164.336 ± 0.073 kg/m3
- mass density (323.15 K, 9045 kPa, x2 = 0.7509): 195.026 ± 0.082 kg/m3
